Read-outs that look alike come from different tables or passages of the source.

The values below come from paper PMC10434227 (Microbiology Spectrum, 2023).

A short description of series [1]: in vitro. As to conditions: human.
Series [2] relates to MPXV USA-2003 (NR-2500) clade II. Put plainly: microbe, parasite or virus in culture. Format: cell-based, monkeypox virus (MPXV).
The subject of series [3] is rVACV Nluc/GFP. Put plainly: microbe, parasite or virus in culture. In kind it is cell-based, vaccinia virus (VACV).
Series [4] is described as follows: in vitro. As to conditions: human. The source holds these as a separate data set.
In series [5] the test system is rVACV Nluc/Scarlet. Put plainly: microbe, parasite or virus in culture. In kind it is cell-based, vaccinia virus (VACV).
For series [6], the system named is MPXV. Format: cell-based, monkeypox virus (MPXV).
The subject of series [7] is rVACV Nluc/GFP. In kind it is cell-based, vaccinia virus (VACV).
Series [8] has as its system rVACV Nluc/Scarlet. In kind it is cell-based, vaccinia virus (VACV).
Series [9] has as its system A549 cells.
In series [10] the test system is A549 cells. The source holds these as a separate data set.
Where [11] appears, read: Monkeypox virus, A549, read-out: EC50 against MPXV.
Setting [12] is: Orthopoxvirus vaccinia, A549, read-out: EC50 FP (GFP fluorescence).
[13] abbreviates: Orthopoxvirus vaccinia, A549, read-out: EC50 Nluc.
Where [14] appears, read: Orthopoxvirus vaccinia, A549, read-out: EC50 FP (Scarlet fluorescence).
[15] abbreviates: read-out: EC50 FP (Scarlet fluorescence).
Setting [16] is: read-out: EC50 FP (GFP fluorescence).

Take `NC(=O)c1[nH]nc([C@@H]2O[C@H](CO)[C@@H](O)[C@H]2O)c1O` [Pyrazofurin, pyrazofurin]: the CC50 in [1] and in series [4] was > 50 µM throughout. For the same molecule, the 50% effective concentration (EC50) in series [2] (setting [11]) stood at 3400 nM; in [3] (setting [12]), 530 nM; in series [3] (setting [13]), 240 nM; in series [5] (setting [14]), 370 nM; in [5] (setting [13]) it was 110 nM; in series [5] (setting [15]), 270 nM.

On to `CC(C)(C)[C@H]1CC[C@H](CC2=C(O)C(=O)c3ccccc3C2=O)CC1` [Buparvaquone, buparvaquone], for which the half-maximal effective concentration (EC50) was determined as 7220 nM in [2] (setting [11]); 1850 nM in series [3] (setting [12]); 1070 nM in [3] (setting [13]); 1950 nM in series [3] (setting [16]); 1760 nM in series [5] (setting [14]); 1120 nM in [5] (setting [13]).

Regarding `NCC(=O)Nc1ccc(-n2nc(C(F)(F)F)cc2-c2ccc3c(ccc4ccccc43)c2)cc1` [Osu-03012, OSU-03012], the EC50 came to 4390 nM in [2] (setting [11]); 3290 nM in series [3] (setting [12]); 2950 nM in series [3] (setting [13]); 2650 nM in series [3] (read-out: EC50 Nluc); 2320 nM in series [5] (setting [14]); 2590 nM in series [5] (setting [13]).

Take `O=C1c2ccccc2-n2c1nc1ccccc1c2=O` [Tryptanthrin, tryptanthrin]: the EC50 in series [2] (setting [11]) is 4790 nM; in [2] (read-out: EC50 against MPXV), 4780 nM; in series [3] (setting [12]), 1340 nM; in [3] (setting [13]) it was 810 nM; in [5] (setting [14]), 1390 nM; in series [5] (setting [13]), 870 nM. For the same molecule, the EC50 came out at 1380 nM in [5] (setting [15]) and 970 nM in [5] (read-out: EC50 Nluc).

`CC(C)[C@@H]1NC(=O)[C@H](C)OC(=O)[C@@H](C(C)C)NC(=O)[C@@H](C(C)C)OC(=O)[C@H](C(C)C)NC(=O)[C@H](C)OC(=O)[C@@H](C(C)C)NC(=O)[C@@H](C(C)C)OC(=O)[C@H](C(C)C)NC(=O)[C@H](C)OC(=O)[C@@H](C(C)C)NC(=O)[C@@H](C(C)C)OC1=O` [Valinomycin, valinomycin]: the 50% effective concentration (EC50) in series [2] (setting [11]) worked out at 1 nM; in [3] (setting [12]), 3 nM; in series [3] (setting [13]), 2 nM; in series [5] (setting [14]) it was 3 nM; in series [5] (setting [13]), 2 nM.

Regarding `CCCCCC[C@H]1C(=O)O[C@H](C)[C@H](NC(=O)c2cccc(NC=O)c2O)C(=O)O[C@@H](C)[C@@H]1OC(=O)CC(C)C` [Antimycin A, antimycin A], the EC50 in series [2] (setting [11]) came out at 10 nM; in [3] (setting [12]), 80 nM; in series [3] (setting [13]), 130 nM; in [3] (setting [16]), 60 nM; in series [3] (read-out: EC50 Nluc), 120 nM; in [5] (setting [14]), 70 nM. Further, the EC50 in series [5] (setting [13]) was 90 nM.

For the molecule `O=C(NN1C(=O)[C@@H]2[C@@H]3C=C[C@@H]([C@H]4C[C@@H]34)[C@@H]2C1=O)c1ccc(C(F)(F)F)cc1` [Tecovirimat, tecovirimat], the extracellular viral titers result in series [6], in [7] and in series [8] was “dose-dependent decrease” throughout. Besides, the CC50 in series [1] and in series [4] was > 50 µM throughout. Moreover, the “inhibitory activity against MPXV (in words)” value in [2] was “potently inhibited MPXV”. Moreover, the EC50 came out at 120 nM in series [2] (setting [11]), 150 nM in [2] (read-out: EC50 against MPXV), 80 nM in series [5] (setting [13]) and 70 nM in series [5] (read-out: EC50 Nluc).

As for `O=c1cnn([C@@H]2O[C@H](CO)[C@@H](O)[C@H]2O)c(=O)[nH]1` [Azauridine, 6-azauridine], the CC50 in series [1] and in series [4] was > 50 µM throughout. The EC50 in [2] (setting [11]) was 2390 nM; in series [3] (setting [12]) it was 1740 nM; in series [3] (setting [13]), 1590 nM; in [3] (read-out: EC50 Nluc), 1580 nM; in series [5] (setting [14]), 840 nM; in series [5] (setting [13]), 1510 nM. Moreover, the EC50 in [5] (setting [15]) was found to be 640 nM.

As to `COc1c(C)c2c(c(O)c1C/C=C(\C)CCC(=O)O)C(=O)OC2` [Mycophenolic acid, mycophenolic acid], the CC50 in series [1] and in [4] was > 150 µM each time. For the same molecule, the EC50 in series [2] (setting [11]) came out at 710 nM; in [3] (setting [12]) it was 590 nM; in [3] (setting [13]) it was 430 nM; in [5] (setting [14]) it was 460 nM; in series [5] (setting [13]), 490 nM.

As to `Fc1ccc(CNc2ncnc3ccc(F)cc23)cc1` [Spautin-1, spautin-1], the values for the CC50 in series [9] and in series [10] were > 50 µM and 8 µM, respectively. The concentration giving a half-maximal response (EC50) in series [2] (read-out: EC50 against MPXV) worked out at 3210 nM; in series [3] (setting [16]), 4430 nM; in [3] (read-out: EC50 Nluc), 2800 nM; in [5] (setting [15]) it was 6780 nM; in series [5] (read-out: EC50 Nluc), 3040 nM.

Turning to “2′,3′,5′-triacetyl-6-azauridine [Azaribine]”, the CC50 in series [9] and in series [10] was > 150 µM in each case. The 50% effective concentration (EC50) came out at 1030 nM in series [3] (setting [16]), 1130 nM in series [3] (read-out: EC50 Nluc), 1320 nM in series [5] (setting [15]) and 1410 nM in series [5] (read-out: EC50 Nluc).
